Read-outs that look alike come from different tables or passages of the source. Numbered stars: 1 amine (or outer) side, 2 acyl side, 3 side chain; on linkers, the order of the positions; unused ones are H or OH. Peptide text beside a SMILES is read from it. * marks the point of attachment. C18 diacid = O=C(O)CCCCCCCCCCCCCCCCC(=O)*; γGlu = O=C(O)[C@H](CCC(=O)[*:2])N[*:1]; AEEA = NCCOCCOCC(=O)O
Tests used:
[1] = biological target: T1, CCK2 receptor (gastrin receptor) (Homo sapiens, UniProt P32239); type: cell-based; conditions: [Leu15] Gastrin-17 = 100, NIH 3T3/CCK2R cells, calcium mobilization
T1 construct: expressed in transfected cells; host or cells: NIH 3T3/CCK2R cells (mouse fibroblast line overexpressing CCK2R, kept under G418 selection)
T1 sequence (P32239 1-447): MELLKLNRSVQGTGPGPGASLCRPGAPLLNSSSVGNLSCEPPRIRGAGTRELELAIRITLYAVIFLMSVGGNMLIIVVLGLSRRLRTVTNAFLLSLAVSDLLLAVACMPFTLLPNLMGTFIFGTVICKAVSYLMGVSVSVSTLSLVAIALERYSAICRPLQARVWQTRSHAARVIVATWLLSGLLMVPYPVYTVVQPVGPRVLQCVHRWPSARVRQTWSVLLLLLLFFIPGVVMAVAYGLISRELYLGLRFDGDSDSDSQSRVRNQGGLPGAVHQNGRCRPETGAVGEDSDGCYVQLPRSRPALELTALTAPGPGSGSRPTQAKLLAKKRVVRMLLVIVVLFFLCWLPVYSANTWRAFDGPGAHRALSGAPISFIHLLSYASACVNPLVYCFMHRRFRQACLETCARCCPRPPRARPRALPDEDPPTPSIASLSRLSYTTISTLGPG
Protocol: Assay (I): In Vitro Receptor Potency In vitro receptor potency was measured using a CCK2 receptor mediated calcium mobilization assay. The CCK2 receptor (gastrin receptor) signals via the heterotrimeric G-protein, Gq, to activate phospholipase C(PLC). This leads to generation of inositol-1,4,5-trisphosphate (IP3) that releases calcium from intracellular stores. The primary rise in cytosolic calcium concentration is followed by activation of calcium dependent calcium channels in the plasma membrane allowing extracellular calcium to enter the cell. The rise in calcium concentration is transient, but it can be measured in situ by loading the cells with a calcium dependent fluorescent probe and monitored by the use of 96- or 384-well fluorescence plate readers. In the current assay, NIH 3T3/CCK2R cells were seeded in black PolyLysin coated 384 well plates with clear bottom at 14000 cells per well and incubated overnight in 25 μl (per well) Gibco Nut. mix F-12 Glutamax medium with 10% FCS, 1% penicillin and streptomycin and 1 mg/ml […]418). The next day […] dye solution (Ca 5 probe from Molecular Devices, dissolved in HBSS/Hepes buffer pH 7.4 containing 0.1% Ovalbumin, 0.005% Tween 20, 3.5 μM Probenecid, 50 μM PDE inhibitor and 0.2% CaCl2) was added per well and the plate was incubated for 1 hour at room temperature. After incubation, these plates were loaded onto FLIPR Tetra from Molecular Devices together with the sample plates containing dilution series of gastrin analogues in HBSS/Hepes buffer with 30% DMSO. During the assay run, 1 μl sample was transferred from the sample plate to the assay plate. Beside the baseline fluorescence measurement, a second fluorescence measurement was performed after 30 seconds with both measurements using the […] 540 nm/590 nm. For each agonist concentration E=Emax. Emin was calculated. The concentration-response relationship was calculated using a four-parameter logistic model using non linear regression analysis (Prism 5.02, GraphPad Software). In vitro receptor potency of gastrin compounds was measured using Assay (I).

[2] = design: species or system Göttingen mini-pigs; conditions: minipig, in vivo, iv, 10 nmol/kg
Protocol: Assay (II): Minipig i.v. PK
Six male Göttingen mini-pigs weighing approximately 20 to 23 kg from Ellegaard Gottingen Minipigs A/S, Denmark were comprised in the study. The mini-pigs were dosed intra venous (i.v.) via a central catheter in vena cava caudalis. The catheter was flushed with 10 ml saline post administration. Blood was sampled from the central catheter. Test substances were dissolved in a vehicle consisting of in 50 mM sodium phosphate, […] sodium chloride, 0.05% tween80 pH 7.4. The pigs were dosed with 10 nmol of gastrin compound (such as gastrin derivative)/kg body weight or 10 nmol Gastrin-17/kg body weight. Blood samples were taken at the following time points: pre-dose, 5 minutes, 15 minutes, 30 minutes, 45 minutes, 1, 1.5, 2, 3, 4, 6, 8, 10, 24, 48, 72, 96, 120, 168, 192 and 216 hours post dosing. The blood samples were collected into test tubes containing EDTA buffer for stabilization and kept on ice for max. 20 minutes before centrifugation. The centrifugation procedure to separate plasma may be: 4° C., approx. 2500 g for 10 minutes. Plasma was collected and immediately transferred to Micronic tubes stored at −20° C. until assayed.
Blood samples were analysed for gastrin compound content using a competitive scintillation proximity assay (SPA). The assay is a radiometric-ligand binding assay using […]™ imaging particles. The assay involves a rabbit anti-human gastrin-17(2-17) polyclonal antibody, wherein the human gastrin-17(2-17) against which said antibody raised contained position 2-17 of SEQ ID NO:2 (said antibody is obtainable from professor Jens Rehfeld, Rigshospitalet, Copenhagen, Denmark), [^125I]-Tyr^12 gastrin I (human) (which has the sequence pG1u-[…][^125I]Tyr-Gly-Trp-Met-Asp-Phe-NH2, item no. NEX176010UC, […]® Waltham, Massachusetts, USA) and PS […]™ particles coated with anti-rabbit Ig antibodies. Gastrin compounds (in calibrators, controls or unknown samples) and [^125I]-Tyr12 human gastrin I will compete for the binding to the polyclonal rabbit anti human gastrin I antibody. The anti-rabbit Ig antibodies on the […]™ particles recognize the anti-gastrin antibodies bringing the [^125I-] gastrin molecules in close proximity to the […]™ particles resulting in light emission from the particles. The […]™ will image the emitted light that is reversely correlated to the amount of gastrin compound present in the sample. 5μL sample, calibrator or control was applied to white 384-well polystyrene plates followed by 10μantibody working solution (rabbit-anti-Gastrin serum from rabbit 2609 batch 11/10-73), 10μl tracer working solution and 10μl bead working solution. […] After exchanging the seal against a new one, the light emission was detected with a […]™ Multimodality Imaging System. […]
The concentration-response relationship was calculated using a four-parameter logistic model using non linear regression analysis and the output of the assay was the concentration of the respective gastrin analogue in pM. The in vivo plasma half life was determined by non-compartmental analysis (NCA) of plasma concentration-time profiles from each animal. NCA may be carried out as follows: Plasma concentration-time profiles were analyzed by non-compartmental pharmacokinetics analysis (NCA) using WinNonlin (Pharsight Inc., Mountain View, Calif., USA); NCA was performed using the individual plasma concentration-time profiles from each animal.
Half life of gastrin compounds was determined according to Assay (II).

[3] = dog, in vivo; cited from earlier work
[4] = Table 2: N-terminal acylation/truncation series

| SMILES | half-life [2] [h] | Relative Receptor Potency ([1]; Table 3: acylation position (Lys scan) series) | Relative Receptor Potency [1, 4] | half life [3] [min] |
| --- | --- | --- | --- | --- |
| CC(C)C[C@H](NC(=O)[C@H](Cc1c[nH]c2ccccc12)NC(=O)CNC(=O)[C@H](Cc1ccc(O)cc1)NC(=O)[C@H](C)NC(=O)[C@H](CCC(=O)O)NC(=O)[C@H](CCC(=O)O)NC(=O)[C@H](CCC(=O)O)NC(=O)[C@H](CCC(=O)O)NC(=O)COCCOCCNC(=O)COCCOCCNC(=O)CC[C@H](NC(=O)CCCCCCCCCCCCCCCCC(=O)O)C(=O)O)C(=O)N[C@@H](CC(=O)O)C(=O)N[C@@H](Cc1ccccc1)C(N)=O [N-α-#-[Leu15] Gastrin-17 (7-17), N-alpha-{2-(2-{2-[2-(2-{2-[4-Carboxy-4-(17-carboxyheptadecanoylamino)butyrylamino]ethoxy}-ethoxy)acetylamino]-ethoxy}ethoxy)acetyl}[Leu15] gastrin-17 (7-17)] ({C18 diacid-γGlu-AEEA-AEEA}-EEEEAYGWLDF-NH2) | ~95 | – | 39 | – |
| CC(C)C[C@H](NC(=O)[C@H](Cc1c[nH]c2ccccc12)NC(=O)CNC(=O)[C@H](Cc1ccc(O)cc1)NC(=O)[C@H](C)NC(=O)[C@H](CCC(=O)O)NC(=O)[C@H](CCC(=O)O)NC(=O)[C@H](CCC(=O)O)NC(=O)[C@H](CCC(=O)O)NC(=O)[C@H](CCC(=O)O)NC(=O)[C@H](CC(C)C)NC(=O)[C@H](Cc1c[nH]c2ccccc12)NC(=O)COCCOCCNC(=O)COCCOCCNC(=O)CC[C@H](NC(=O)CCCCCCCCCCCCCCCCC(=O)O)C(=O)O)C(=O)N[C@@H](CC(=O)O)C(=O)N[C@@H](Cc1ccccc1)C(N)=O [N-α-#-[Leu15] Gastrin-17 (4-17), N-alpha-{2-(2-{2-[2-(2-{2-[4-Carboxy-4-(17-carboxyheptadecanoylamino)butyrylamino]ethoxy}-ethoxy)acetylamino]-ethoxy}ethoxy)acetyl}[Leu15] gastrin-17 (4-17)] ({C18 diacid-γGlu-AEEA-AEEA}-WLEEEEEAYGWLDF-NH2) | 95 | – | 58 | – |

Now from value to compound, other results behind:

| half-life [2] [h] | Relative Receptor Potency ([1]; Table 3: acylation position (Lys scan) series) | SMILES | Relative Receptor Potency [1, 4] | half life [3] [min] |
| --- | --- | --- | --- | --- |
| 109 ± 26 | 57 | CC(C)C[C@H](NC(=O)[C@H](Cc1c[nH]c2ccccc12)NC(=O)CNC(=O)[C@H](Cc1ccc(O)cc1)NC(=O)[C@H](C)NC(=O)[C@H](CCC(=O)O)NC(=O)[C@H](CCC(=O)O)NC(=O)[C@H](CCC(=O)O)NC(=O)[C@H](CCC(=O)O)NC(=O)[C@H](CCC(=O)O)NC(=O)[C@H](CC(C)C)NC(=O)[C@H](Cc1c[nH]c2ccccc12)NC(=O)[C@@H]1CCCN1C(=O)CNC(=O)[C@H](CCC(N)=O)NC(=O)COCCOCCNC(=O)COCCOCCNC(=O)CC[C@H](NC(=O)CCCCCCCCCCCCCCCCC(=O)O)C(=O)O)C(=O)N[C@@H](CC(=O)O)C(=O)N[C@@H](Cc1ccccc1)C(N)=O [N-α-#-[Leu15] Gastrin-17, N-alpha-{2-(2-{2-[2-(2-{2-[4-Carboxy-4-(17-carboxyheptadecanoylamino)butyrylamino]ethoxy}-ethoxy)acetylamino]-ethoxy}ethoxy)acetyl}[Gln1,Leu15] gastrin-17] ({C18 diacid-γGlu-AEEA-AEEA}-QGPWLEEEEEAYGWLDF-NH2) | 76 | – |
| 64 ± 6 | – | CSCC[C@H](NC(=O)[C@H](Cc1c[nH]c2ccccc12)NC(=O)CNC(=O)[C@H](Cc1ccc(O)cc1)NC(=O)[C@H](C)NC(=O)[C@H](CCC(=O)O)NC(=O)[C@H](CCC(=O)O)NC(=O)[C@H](CCC(=O)O)NC(=O)[C@H](CCC(=O)O)NC(=O)[C@H](CCC(=O)O)NC(=O)[C@H](CC(C)C)NC(=O)[C@H](Cc1c[nH]c2ccccc12)NC(=O)[C@@H]1CCCN1C(=O)CNC(=O)[C@H](CCC(N)=O)NC(=O)COCCOCCNC(=O)COCCOCCNC(=O)CC[C@H](NC(=O)CCCCCCCCCCCCCCCCC(=O)O)C(=O)O)C(=O)N[C@@H](CC(=O)O)C(=O)N[C@@H](Cc1ccccc1)C(N)=O [N-alpha-#-gastrin-17, N-alpha-{2-(2-{2-[2-(2-{2-[4-Carboxy-4-(17-carboxyheptadecanoylamino)butyrylamino]ethoxy}-ethoxy)acetylamino]-ethoxy}ethoxy)acetyl}[Gln1] gastrin-17 (A)] | – | – |
| 0.058 ± 0.007 | – | CSCC[C@H](NC(=O)[C@H](Cc1c[nH]c2ccccc12)NC(=O)CNC(=O)[C@H](Cc1ccc(O)cc1)NC(=O)[C@H](C)NC(=O)[C@H](CCC(=O)O)NC(=O)[C@H](CCC(=O)O)NC(=O)[C@H](CCC(=O)O)NC(=O)[C@H](CCC(=O)O)NC(=O)[C@H](CCC(=O)O)NC(=O)[C@H](CC(C)C)NC(=O)[C@H](Cc1c[nH]c2ccccc12)NC(=O)[C@@H]1CCCN1C(=O)CNC(=O)[C@@H](N)CCC(N)=O)C(=O)N[C@@H](CC(=O)O)C(=O)N[C@@H](Cc1ccccc1)C(N)=O [gastrin-17, reference compound] | – | 2 to 8 |
